The target of the assay is T1, Ketohexokinase (Human, UniProt P50053).
T1 sequence (P50053 whole entry): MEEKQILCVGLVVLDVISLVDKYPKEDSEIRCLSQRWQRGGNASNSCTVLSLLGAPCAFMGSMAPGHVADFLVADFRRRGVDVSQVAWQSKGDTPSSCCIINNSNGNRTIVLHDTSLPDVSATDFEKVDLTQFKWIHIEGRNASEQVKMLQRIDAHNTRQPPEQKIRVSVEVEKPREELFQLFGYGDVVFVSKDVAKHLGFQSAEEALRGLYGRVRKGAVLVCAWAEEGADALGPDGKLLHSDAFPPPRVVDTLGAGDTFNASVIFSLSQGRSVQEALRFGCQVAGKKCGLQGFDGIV
The assay can be described thus: Enzyme Assay.

Description: An enzymatic assay was developed to measure KHK-mediated conversion of D-fructose to Fructose-1-P (F-1-P) using High Throughput Mass Spectroscopy (HTMS) as a means of product detection. […] The assay was carried out in 384-well plate format.

Regarding `COc1nn(-c2ccccc2)c2cc(N3CN(C4CCNCC4)C3)ccc12` [US9771375, Example 73], 390 nM corresponded to half-maximal inhibition (IC50). With `CCc1nn(-c2ccccc2)c2nc(-c3ccc(N4CCNCC4)cc3)nc(O)c12` [US9771375, Example 97] the figure was 2710 nM.
